In ChEMBL document CHEMBL3739370, “Synthesis and evaluation of amide, sulfonamide and urea benzisoxazole derivatives as potential atypical antipsychotics” (Medchemcomm, 2015):

How the values were obtained:
[1] = target: D(3) dopamine receptor (Homo sapiens) (UniProt P35462); test: Agonist activity at dopamine D3 receptor (unknown origin) at 10 uM relative to dopamine
Mus musculus [2] = test: Toxicity in po dosed mouse assessed as catalepsy; assay type: organism-based; details: in vivo
Mus musculus [3] = test: Antipsychotic activity in po dosed mouse assessed as reversal of DOI-induced head twitch activity; assay type: functional
[4] = target: T1, Adrenergic receptor alpha-1 (Rattus norvegicus, UniProt P15823+P23944+P43140); test: Displacement of [3H]prazosin from adrenergic alpha1 receptor in rat brain cortex; assay type: tissue-based
T1 sequence (P15823 whole entry): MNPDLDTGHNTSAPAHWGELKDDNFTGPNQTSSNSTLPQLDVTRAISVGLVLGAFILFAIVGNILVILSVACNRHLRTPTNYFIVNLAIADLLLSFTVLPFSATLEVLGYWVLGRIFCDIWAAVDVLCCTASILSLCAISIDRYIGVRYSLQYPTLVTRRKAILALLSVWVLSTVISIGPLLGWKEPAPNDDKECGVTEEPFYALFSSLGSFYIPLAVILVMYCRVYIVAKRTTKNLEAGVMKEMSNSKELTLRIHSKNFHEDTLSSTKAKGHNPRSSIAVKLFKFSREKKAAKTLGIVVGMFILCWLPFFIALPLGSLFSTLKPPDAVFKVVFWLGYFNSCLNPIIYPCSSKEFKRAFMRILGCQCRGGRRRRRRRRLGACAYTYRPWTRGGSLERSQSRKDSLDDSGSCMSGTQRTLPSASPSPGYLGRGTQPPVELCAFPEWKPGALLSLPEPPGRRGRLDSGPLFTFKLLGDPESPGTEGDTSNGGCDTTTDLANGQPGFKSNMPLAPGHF
T1 sequence (P23944 whole entry): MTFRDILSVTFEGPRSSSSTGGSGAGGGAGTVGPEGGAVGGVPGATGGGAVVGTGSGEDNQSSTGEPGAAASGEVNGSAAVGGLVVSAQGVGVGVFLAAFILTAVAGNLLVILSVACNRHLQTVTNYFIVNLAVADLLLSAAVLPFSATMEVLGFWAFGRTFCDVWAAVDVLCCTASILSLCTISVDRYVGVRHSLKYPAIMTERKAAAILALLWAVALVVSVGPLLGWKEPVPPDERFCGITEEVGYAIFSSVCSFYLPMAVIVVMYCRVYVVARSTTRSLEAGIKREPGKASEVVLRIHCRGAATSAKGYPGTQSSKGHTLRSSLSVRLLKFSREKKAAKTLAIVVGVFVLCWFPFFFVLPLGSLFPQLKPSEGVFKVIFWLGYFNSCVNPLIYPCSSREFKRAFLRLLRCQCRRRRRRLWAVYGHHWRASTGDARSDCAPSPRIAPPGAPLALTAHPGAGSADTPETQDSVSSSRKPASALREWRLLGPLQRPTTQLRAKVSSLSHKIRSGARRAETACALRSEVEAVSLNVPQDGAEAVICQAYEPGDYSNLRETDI
T1 sequence (P43140 whole entry): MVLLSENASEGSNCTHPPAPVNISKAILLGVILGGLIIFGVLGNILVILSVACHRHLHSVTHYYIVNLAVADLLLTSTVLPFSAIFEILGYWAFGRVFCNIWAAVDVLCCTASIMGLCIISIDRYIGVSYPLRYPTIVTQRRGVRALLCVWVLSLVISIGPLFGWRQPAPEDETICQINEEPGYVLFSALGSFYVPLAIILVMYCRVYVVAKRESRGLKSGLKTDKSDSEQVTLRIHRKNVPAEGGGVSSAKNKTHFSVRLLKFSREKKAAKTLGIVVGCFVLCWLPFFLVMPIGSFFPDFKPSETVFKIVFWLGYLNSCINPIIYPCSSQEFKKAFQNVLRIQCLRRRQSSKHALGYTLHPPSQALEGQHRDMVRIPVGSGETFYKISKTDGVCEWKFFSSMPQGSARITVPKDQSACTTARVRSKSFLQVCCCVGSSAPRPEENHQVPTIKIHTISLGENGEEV

[5] = target: D(2) dopamine receptor (Homo sapiens) (UniProt P14416); test: Agonist activity at dopamine D2 receptor (unknown origin) at 10 uM relative to dopamine
Sequence of D(2) dopamine receptor (Homo sapiens) (P14416 whole entry): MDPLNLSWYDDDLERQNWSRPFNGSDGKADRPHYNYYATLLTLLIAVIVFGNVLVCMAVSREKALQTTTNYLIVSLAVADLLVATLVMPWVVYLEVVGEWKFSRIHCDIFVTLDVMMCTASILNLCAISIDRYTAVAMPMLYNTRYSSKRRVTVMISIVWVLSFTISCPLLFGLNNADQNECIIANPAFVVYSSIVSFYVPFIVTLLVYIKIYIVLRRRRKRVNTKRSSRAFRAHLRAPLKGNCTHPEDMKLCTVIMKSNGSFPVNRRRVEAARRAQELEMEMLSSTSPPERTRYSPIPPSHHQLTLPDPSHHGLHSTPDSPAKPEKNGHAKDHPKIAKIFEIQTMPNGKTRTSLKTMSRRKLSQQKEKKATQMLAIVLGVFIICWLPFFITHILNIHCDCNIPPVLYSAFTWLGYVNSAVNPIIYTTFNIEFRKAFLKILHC

Mus musculus [6] = test: Selectivity ratio of ED50 for po dosed mouse assessed as catalepsy to ED50 for po dosed mouse assessed as reversal of apomorphine-induced climbing activity
Mus musculus [7] = test: Selectivity ratio of ED50 for po dosed mouse assessed as catalepsy to ED50 for po dosed mouse assessed as reversal of MK-801-induced hyperactivity
Mus musculus [8] = test: Antipsychotic activity in po dosed mouse assessed as reversal of apomorphine-induced climbing activity; assay type: functional
Mus musculus [9] = test: Antipsychotic activity in po dosed mouse assessed as reversal of MK-801-induced hyperactivity; assay type: functional
D(3) dopamine receptor = D(3) dopamine receptor (Rattus norvegicus, UniProt P19020); test: Displacement of [3H]7-OH-DPAT from dopamine D3 receptor in rat olfactory tubercle; assay type: tissue-based
Sequence of D(3) dopamine receptor (P19020 whole entry): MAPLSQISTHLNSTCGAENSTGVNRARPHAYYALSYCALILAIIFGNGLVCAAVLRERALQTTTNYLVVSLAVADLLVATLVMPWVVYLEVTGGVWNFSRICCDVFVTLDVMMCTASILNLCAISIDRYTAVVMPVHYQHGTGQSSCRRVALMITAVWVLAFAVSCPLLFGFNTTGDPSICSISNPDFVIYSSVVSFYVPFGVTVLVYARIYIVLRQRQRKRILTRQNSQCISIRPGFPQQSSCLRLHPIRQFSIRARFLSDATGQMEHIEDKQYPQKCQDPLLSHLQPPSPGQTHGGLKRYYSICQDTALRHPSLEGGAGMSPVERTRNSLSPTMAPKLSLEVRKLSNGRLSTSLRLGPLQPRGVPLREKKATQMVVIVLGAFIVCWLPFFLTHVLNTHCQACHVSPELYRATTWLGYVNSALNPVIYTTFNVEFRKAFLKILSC

[10] = target: T2, 5-hydroxytryptamine receptor 1A (Homo sapiens) (UniProt P08908); test: Agonist activity at […] receptor (unknown origin) at 10 uM relative to 5-HT
T2 sequence (whole entry): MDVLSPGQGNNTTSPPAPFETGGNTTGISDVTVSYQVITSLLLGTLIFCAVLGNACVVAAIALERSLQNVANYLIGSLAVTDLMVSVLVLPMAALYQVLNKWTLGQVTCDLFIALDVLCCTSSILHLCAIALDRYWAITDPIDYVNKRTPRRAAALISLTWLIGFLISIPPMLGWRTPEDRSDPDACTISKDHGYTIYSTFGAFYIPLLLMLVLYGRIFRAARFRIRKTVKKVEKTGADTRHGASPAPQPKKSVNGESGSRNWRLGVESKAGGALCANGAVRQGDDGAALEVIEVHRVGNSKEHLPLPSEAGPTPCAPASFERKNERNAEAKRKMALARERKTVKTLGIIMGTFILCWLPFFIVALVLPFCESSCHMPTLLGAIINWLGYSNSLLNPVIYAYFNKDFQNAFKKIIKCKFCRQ

[11] = target: D(2) dopamine receptor (Homo sapiens) (UniProt P14416); test: Antagonist activity at dopamine D2 receptor (unknown origin) at 10 uM
[12] = target: 5-hydroxytryptamine receptor 2A (Homo sapiens) (UniProt P28223); test: Agonist activity at […] receptor (unknown origin) at 10 uM relative to 5-HT
Sequence of 5-hydroxytryptamine receptor 2A (Homo sapiens) (P28223 whole entry): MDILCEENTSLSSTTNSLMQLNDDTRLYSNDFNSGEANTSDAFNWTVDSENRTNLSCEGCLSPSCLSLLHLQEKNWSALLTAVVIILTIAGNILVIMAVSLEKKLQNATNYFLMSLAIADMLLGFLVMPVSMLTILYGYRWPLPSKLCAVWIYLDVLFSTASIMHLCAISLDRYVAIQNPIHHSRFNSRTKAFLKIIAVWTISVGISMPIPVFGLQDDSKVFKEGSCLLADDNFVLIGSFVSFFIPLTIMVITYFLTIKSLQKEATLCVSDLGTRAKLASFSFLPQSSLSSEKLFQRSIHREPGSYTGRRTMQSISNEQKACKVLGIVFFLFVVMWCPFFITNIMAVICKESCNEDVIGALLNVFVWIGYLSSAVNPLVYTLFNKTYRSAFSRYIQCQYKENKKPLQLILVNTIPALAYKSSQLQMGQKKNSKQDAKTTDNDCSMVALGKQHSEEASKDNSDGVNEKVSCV

[13] = target: 5-hydroxytryptamine receptor 2A (Homo sapiens) (UniProt P28223); test: Antagonist activity at […] receptor (unknown origin) at 10 uM

Sequence of D(3) dopamine receptor (Homo sapiens) (P35462 whole entry): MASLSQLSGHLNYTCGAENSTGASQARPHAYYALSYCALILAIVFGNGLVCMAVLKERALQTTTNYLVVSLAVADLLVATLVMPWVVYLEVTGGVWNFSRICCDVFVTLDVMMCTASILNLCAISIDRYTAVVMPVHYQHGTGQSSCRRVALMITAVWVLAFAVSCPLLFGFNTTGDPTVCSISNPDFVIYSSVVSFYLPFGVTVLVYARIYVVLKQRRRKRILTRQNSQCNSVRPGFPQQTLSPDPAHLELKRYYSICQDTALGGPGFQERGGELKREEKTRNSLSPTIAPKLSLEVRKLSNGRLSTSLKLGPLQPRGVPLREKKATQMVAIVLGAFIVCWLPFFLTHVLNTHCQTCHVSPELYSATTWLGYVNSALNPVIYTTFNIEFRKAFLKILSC

Activity [1] | Ki [4] | Activity [5] | Ki (D(3) dopamine receptor) | Activity [10] | inhibition [11] | Activity [12] | inhibition [13] | Compound | ED50 (Mus musculus [2]) | ED50 (Mus musculus [3]) | Ratio ED50 (Mus musculus [6]) | Ratio ED50 (Mus musculus [7]) | ED50 (Mus musculus [8]) | ED50 (Mus musculus [9])
3.7% | 2356.2 nM | 5.9% | 16.6 nM | 8.2% | 100% | 6.8% | 100% | O=[N+]([O-])c1ccc(S(=O)(=O)N2CCC(CN3CCC(c4noc5cc(F)ccc45)CC3)CC2)cc1 | 43.53 mg/kg | 0.57 mg/kg | 108.8 | 61.3 | 0.4 mg/kg | 0.71 mg/kg
 | 1098.2 nM |  | 237 nM |  |  |  |  | O=S(=O)(c1ccc(C(F)(F)F)cc1)N1CCC(CN2CCC(c3noc4cc(F)ccc34)CC2)CC1 |  |  |  |  |  | 
